Test results taken from ChEMBL document CHEMBL1201862, “PubChem BioAssay data set” (2004).
Values joined by “and” are separate entries in the source; they are usually repeats but may differ in a detail not shown here. Identical values can stand only once.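 Step 1: Grow cells in 96-well plates. Step 2: Expose to compound for 48 hours at 5 concentrations. Step 3: Interpolate endpoints linearly; if unreached, use highest concentration. GI50: concentration for 50% inhibition of growth.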 Active and inactive are the calls of the source. Rule as the data show it: active = GI50 up to about 1.1 µM and inactive = higher.

Tests used:
Assay in all cases: NCI-60 cell line screen, 48 h
[1] = system: 786-0
[2] = system: COLO 205
[3] = system: DU-145
[4] = system: HOP-92
[5] = system: HT-29
[6] = system: K562
[7] = system: MDA-MB-231
[8] = system: MDA-MB-435
[9] = system: NCI-H522
[10] = system: OVCAR-5
[11] = system: OVCAR-8
[12] = system: RPMI-8226
[13] = system: SF-268
[14] = system: SK-MEL-28
[15] = system: SK-MEL-2
[16] = system: SNB-75
[17] = system: SR
[18] = system: T47D
[19] = system: UACC-257
[20] = system: UACC-62

Which results are given for `COc1ccc2c(c1)/C(=C\c1c(Cl)nc3sc(C)cn13)C(=O)N2`?
GI50 [1]: 4.22 µM (inactive); GI50 [2]: 1.6 µM (inactive); GI50 [3]: 5.74 µM (inactive); GI50 [4]: 10.6 µM (inactive); GI50 [5]: 2.41 µM (inactive); GI50 [6]: 0.521 µM (active); GI50 [7]: 5.65 µM (inactive); GI50 [8]: 0.286 µM (active); GI50 [9]: 3.05 µM (inactive); GI50 [10]: 9.59 µM (inactive); GI50 [11]: 4.06 µM (inactive); GI50 [12]: 2.61 µM (inactive); GI50 [13]: 4.31 µM (inactive); GI50 [14]: 8.17 µM (inactive); GI50 [15]: 2.87 µM (inactive); GI50 [16]: 4.98 µM (inactive); GI50 [17]: 700 nM (active); GI50 [18]: 3.99 µM (inactive); GI50 [19]: 4.11 µM (inactive); GI50 [20]: 3.29 µM (inactive)

What does the source list for `CC(=O)NNc1nc(C)c(C(/C=C/c2ccc([N+](=O)[O-])cc2)=N/N)s1`?
GI50 [1]: > 100 µM (inactive); GI50 [2]: > 100 µM (inactive); GI50 [3]: 96.4 µM (inactive); GI50 [4]: > 100 µM (inactive); GI50 [5]: > 100 µM (inactive); GI50 [6]: 55.5 µM (inactive); GI50 [7]: 25.4 µM (inactive); GI50 [8]: > 100 µM (inactive); GI50 [9]: > 100 µM (inactive); GI50 [10]: > 100 µM (inactive); GI50 [11]: > 100 µM (inactive); GI50 [12]: 30.9 µM (inactive); GI50 [13]: > 100 µM (inactive); GI50 [14]: > 100 µM (inactive); GI50 [15]: > 100 µM (inactive); GI50 [16]: 87.9 µM (inactive); GI50 [17]: 37700 nM (inactive); GI50 [18]: > 100 µM (inactive); GI50 [19]: 88.1 µM (inactive); GI50 [20]: > 100 µM (inactive)

Which GI50 [1] does the source give for `COC(=O)C1=C(C(=O)OC)N(c2ccncc2)C(c2ccco2)=CC1c1ccccc1[N+](=O)[O-]` (stereo not given) here?
The GI50 was 1.7 µM (inactive).

And the GI50 [2]?
Its GI50 is 4.75 µM (inactive).

And the GI50 [3]?
The GI50 was 5.24 µM (inactive).

And the GI50 [4]?
Its GI50 is 14.1 µM (inactive).

What about the GI50 [5] of the same molecule?
Its GI50 is 1.99 µM (inactive).

What about the GI50 [6] of the same molecule?
Its GI50 is 1.44 µM (inactive).

What about the GI50 [7] of the same molecule?
The GI50 was 11.6 µM (inactive).

And the GI50 [8]?
Its GI50 is 6.15 µM (inactive).

And the GI50 [9]?
The GI50 was 2.03 µM (inactive).

What about the GI50 [10] of the same molecule?
The GI50 was 14.6 µM (inactive).

And the GI50 [11]?
The GI50 was 8.04 µM (inactive).

And the GI50 [12]?
Its GI50 is 1.39 µM (inactive).

What about the GI50 [13] of the same molecule?
Its GI50 is 4.72 µM (inactive).

What about the GI50 [14] of the same molecule?
Its GI50 is 6.32 µM (inactive).

What about the GI50 [15] of the same molecule?
The GI50 was 18.2 µM (inactive).

And the GI50 [16]?
Its GI50 is 5.64 µM (inactive).

What about the GI50 [17] of the same molecule?
Its GI50 is 750 nM (active).

And the GI50 [18]?
The GI50 was 3.78 µM (inactive).

And the GI50 [19]?
Its GI50 is 2.02 µM (inactive).

What about the GI50 [20] of the same molecule?
The GI50 was 9.91 µM (inactive).

How did the GI50 [1] turn out when `C=C(Cl)C(Cl)(CBr)CCC(Br)C(C)(C)Cl` (stereo not given) was run?
The GI50 was 640 nM (active) and 175 nM (active) and 247 nM (active).

And the GI50 [2]?
Its GI50 is 1.72 µM (inactive) and 2.95 µM (inactive) and 14.5 µM (inactive).

What about the GI50 [3] of the same molecule?
Its GI50 is 2.76 µM (inactive) and 1.38 µM (inactive).

What about the GI50 [4] of the same molecule?
Its GI50 is 2.63 µM (inactive) and 1.42 µM (inactive) and 1.35 µM (inactive).

And the GI50 [5]?
Its GI50 is 497 nM (active) and 828 nM (active) and 735 nM (active).

What about the GI50 [6] of the same molecule?
The GI50 was 1.33 µM (inactive) and 14.4 µM (inactive) and 863 nM (active).

What about the GI50 [7] of the same molecule?
Its GI50 is 8.36 µM (inactive) and 1.22 µM (inactive) and 1.95 µM (inactive).

And the GI50 [8]?
The GI50 was 2.18 µM (inactive) and 11.1 µM (inactive) and 1.77 µM (inactive).

And the GI50 [9]?
Its GI50 is 16 µM (inactive) and 13.8 µM (inactive) and 14.3 µM (inactive).

And the GI50 [10]?
The GI50 was 1.93 µM (inactive) and 14.7 µM (inactive) and 3.42 µM (inactive).

What about the GI50 [11] of the same molecule?
The GI50 was 6.25 µM (inactive) and 2.03 µM (inactive) and 1.26 µM (inactive).

And the GI50 [12]?
Its GI50 is 149 nM (active) and 221 nM (active) and 485 nM (active).

And the GI50 [13]?
Its GI50 is 3.03 µM (inactive) and 735 nM (active) and 1.35 µM (inactive).

What about the GI50 [14] of the same molecule?
Its GI50 is 1.73 µM (inactive) and 11.5 µM (inactive) and 2.28 µM (inactive).

And the GI50 [15]?
Its GI50 is 1.31 µM (inactive).

What about the GI50 [16] of the same molecule?
Its GI50 is 1.64 µM (inactive) and 834 nM (active) and 416 nM (active).

And the GI50 [17]?
Its GI50 is 11.5 µM (inactive) and 4.53 µM (inactive) and 15 µM (inactive).

And the GI50 [18]?
Its GI50 is 3.37 µM (inactive) and 416 nM (active) and 973 nM (active).

What about the GI50 [19] of the same molecule?
Its GI50 is 2.78 µM (inactive) and 1.66 µM (inactive) and 2.1 µM (inactive).

What about the GI50 [20] of the same molecule?
Its GI50 is 3.72 µM (inactive) and 1.07 µM (active) and 3.47 µM (inactive).
